In patent publication US20050118290A1, “Compositions and method for treatment of steroid/nuclear receptor-mediated diseases” (University of Singapore, priority 2003, published 2005):

How the values were obtained:
Type in all cases: cell-based
[1] = target: T1, Progesterone Receptor (Homo sapiens, UniProt P06401); assay: PR (ARE)2-Luc luciferase reporter gene assay
T1 construct: expressed in transfected cells; host or cells: HeLa (named for the formononetin and daidzein experiments)
T1 sequence (P06401 1-933): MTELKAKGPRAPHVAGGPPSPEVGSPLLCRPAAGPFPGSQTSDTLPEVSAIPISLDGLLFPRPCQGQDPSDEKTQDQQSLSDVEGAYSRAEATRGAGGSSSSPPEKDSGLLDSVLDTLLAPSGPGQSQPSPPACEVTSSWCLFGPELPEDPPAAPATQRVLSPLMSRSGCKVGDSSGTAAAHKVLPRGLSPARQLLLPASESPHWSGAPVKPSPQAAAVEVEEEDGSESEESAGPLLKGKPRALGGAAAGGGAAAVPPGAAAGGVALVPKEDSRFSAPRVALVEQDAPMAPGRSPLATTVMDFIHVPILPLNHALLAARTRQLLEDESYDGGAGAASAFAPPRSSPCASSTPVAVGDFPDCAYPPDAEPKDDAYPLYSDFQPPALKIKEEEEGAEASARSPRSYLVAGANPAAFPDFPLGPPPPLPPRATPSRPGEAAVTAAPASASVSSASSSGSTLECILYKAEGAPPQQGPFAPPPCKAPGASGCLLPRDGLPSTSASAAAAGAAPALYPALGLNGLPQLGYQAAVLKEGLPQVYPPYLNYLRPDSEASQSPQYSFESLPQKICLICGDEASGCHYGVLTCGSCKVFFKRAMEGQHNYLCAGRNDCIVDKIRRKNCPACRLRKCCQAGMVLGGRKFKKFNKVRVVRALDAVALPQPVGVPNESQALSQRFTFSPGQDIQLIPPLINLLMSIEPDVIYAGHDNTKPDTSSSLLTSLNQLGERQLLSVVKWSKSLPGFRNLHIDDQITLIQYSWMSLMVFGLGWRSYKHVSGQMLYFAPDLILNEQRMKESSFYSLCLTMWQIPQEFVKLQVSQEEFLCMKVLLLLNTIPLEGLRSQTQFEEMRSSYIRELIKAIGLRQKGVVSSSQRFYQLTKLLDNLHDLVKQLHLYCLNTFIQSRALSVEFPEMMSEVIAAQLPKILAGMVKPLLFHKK
Method: (§1) The capacity of HQ extract to activate other steroid receptors, namely AR, PR, GR, ERα and ERβ was examined. […] The (ARE)2-Luc plasmid consist of two repeats of Androgen Response Element (ARE) cloned upstream of the Luciferase Reporter gene in a pGL3-Basic vector (Promega).
(§2) AR, PR, GR and ERα and […] were determined by comparing luciferase activity in test cells with control cells exposed to vehicle (i.e., ethanol or methanol) only, analogous to the determination of PPAR activity as described in the previous examples.

[2] = target: T2, PPARα (Homo sapiens, UniProt Q07869); assay: Chimeric Gal4DBD-PPARαLBD receptor / UASg-luciferase reporter gene assay in HeLa cells; settings: for increase of the activity of maximal doses of PPARα agonist: with WY14643 30×10^−6M
T2 construct: expressed in transfected cells; host or cells: HeLa
T2 sequence (Q07869 239-466 limits assumed): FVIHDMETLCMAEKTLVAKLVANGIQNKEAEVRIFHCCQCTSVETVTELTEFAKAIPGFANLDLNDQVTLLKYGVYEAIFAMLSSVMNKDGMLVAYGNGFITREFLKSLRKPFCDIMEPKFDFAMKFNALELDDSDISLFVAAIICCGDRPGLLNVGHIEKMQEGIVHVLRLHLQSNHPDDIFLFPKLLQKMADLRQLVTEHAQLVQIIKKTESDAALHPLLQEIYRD
Text: (§3) In an example of such a reporter gene assay, a plasmid containing chimeric Ga14DBD-PPARLBD receptor cDNA was constructed by excising the ligand binding domain (LBD) of full length PPARγ and PPARα and ligating the resulting fragments in frame to the Ga14-DNA binding domain (DBD) of Saccharomyces cerevisiae in a pM vector (Clontech). Specifically, to construct Ga14DBD-PPARγLBD plasmid, pSG5 expression vector (Stratagene) containing full length PPARγ was excised with Rsa I and blunt ligated to Hind III site of pMGa14DBD expression plasmid (Clontech). To construct Ga14DBD-PPARαLBD plasmid, pSG5 expression vector (Stratagene) containing full length PPARα was excised with BstU I and BamH I and blunt-end ligated in frame to BamH I site of pMGa14DBD expression plasmid (Clontech). […] Ga14 DBD binds very strongly to the exogenous UASg promoter, thereby giving rise to a sensitive and specific assay. To measure PPARγ and PPARα agonist activity, HeLa cells were grown in 24-well microtiter plates and then transiently co-transfected with the two plasmids (chimeric PPAR receptor and UASg reporter gene) using Lipofectamine (Invitrogen). […] Concurrently, cells exposed to known PPAR ligands served as positive controls. Replicate wells, exposed to the vehicle solvent (i.e., ethanol or methanol) in which herbal extracts were dissolved, were used as negative controls. After the 40 hr incubation period, cells were rinsed with phosphate buffered saline (PBS), lysis buffer was added, and cell lysates were collected for measurement of luciferase activity using a luminometer. […] All data points are in triplicate. The data points represent the mean of triplicate wells. Luciferase activity in such an assay accurately reflects the activity of any ligands on PPARγ or PPARα.

[3] = target: T3, human androgen receptor (Homo sapiens, UniProt P10275); assay: AR (ARE)2-Luc luciferase reporter gene assay in HeLa cells
T3 construct: expressed in transfected cells; host or cells: HeLa
T3 sequence (P10275 1-920): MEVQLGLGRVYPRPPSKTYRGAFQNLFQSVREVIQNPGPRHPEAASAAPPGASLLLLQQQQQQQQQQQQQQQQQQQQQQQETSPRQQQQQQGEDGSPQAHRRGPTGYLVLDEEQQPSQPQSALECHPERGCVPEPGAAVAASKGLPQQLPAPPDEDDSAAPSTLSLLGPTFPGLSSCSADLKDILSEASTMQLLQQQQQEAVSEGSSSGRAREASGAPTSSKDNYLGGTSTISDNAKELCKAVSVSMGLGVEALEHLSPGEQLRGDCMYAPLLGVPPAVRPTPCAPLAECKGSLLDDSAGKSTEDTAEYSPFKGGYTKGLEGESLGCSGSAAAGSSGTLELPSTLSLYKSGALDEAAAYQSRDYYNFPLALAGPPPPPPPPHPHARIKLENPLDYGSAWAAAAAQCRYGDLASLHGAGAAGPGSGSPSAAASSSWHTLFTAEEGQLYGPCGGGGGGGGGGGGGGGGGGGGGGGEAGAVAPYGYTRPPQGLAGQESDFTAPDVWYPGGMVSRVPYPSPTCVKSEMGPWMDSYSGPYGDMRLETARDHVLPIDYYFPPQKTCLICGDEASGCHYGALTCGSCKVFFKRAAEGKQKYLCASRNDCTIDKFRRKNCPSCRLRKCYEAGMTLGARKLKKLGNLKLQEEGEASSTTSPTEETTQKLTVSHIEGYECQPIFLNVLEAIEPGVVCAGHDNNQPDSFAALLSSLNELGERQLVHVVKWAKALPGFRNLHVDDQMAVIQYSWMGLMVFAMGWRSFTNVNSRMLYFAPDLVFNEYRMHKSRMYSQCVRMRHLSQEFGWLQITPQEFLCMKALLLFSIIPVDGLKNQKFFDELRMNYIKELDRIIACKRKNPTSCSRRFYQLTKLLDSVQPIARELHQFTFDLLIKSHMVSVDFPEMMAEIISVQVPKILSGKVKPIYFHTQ
Method: as §1, §2

[4] = target: T4, PPARγ (Homo sapiens, UniProt P37231); assay: Chimeric Gal4DBD-PPARγLBD receptor / UASg-luciferase reporter gene assay in HeLa cells
T4 construct: expressed in transfected cells; host or cells: HeLa
T4 sequence (P37231 238-503 limits assumed): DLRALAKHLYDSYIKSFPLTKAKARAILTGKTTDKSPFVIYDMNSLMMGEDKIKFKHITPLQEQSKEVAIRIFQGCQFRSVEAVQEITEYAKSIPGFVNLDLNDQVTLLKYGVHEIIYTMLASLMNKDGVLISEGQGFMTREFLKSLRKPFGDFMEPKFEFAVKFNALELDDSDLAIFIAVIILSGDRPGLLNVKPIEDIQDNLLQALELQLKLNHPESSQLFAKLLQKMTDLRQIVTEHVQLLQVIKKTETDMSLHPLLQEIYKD
Text: as §3

[5] = target: T5, human estrogen receptor ERα (Homo sapiens, UniProt P03372); assay: ERα MMTV-ERE-LUC reporter gene assay in HeLa cells
T5 construct: expressed in transfected cells; host or cells: HeLa
T5 sequence (P03372 1-595): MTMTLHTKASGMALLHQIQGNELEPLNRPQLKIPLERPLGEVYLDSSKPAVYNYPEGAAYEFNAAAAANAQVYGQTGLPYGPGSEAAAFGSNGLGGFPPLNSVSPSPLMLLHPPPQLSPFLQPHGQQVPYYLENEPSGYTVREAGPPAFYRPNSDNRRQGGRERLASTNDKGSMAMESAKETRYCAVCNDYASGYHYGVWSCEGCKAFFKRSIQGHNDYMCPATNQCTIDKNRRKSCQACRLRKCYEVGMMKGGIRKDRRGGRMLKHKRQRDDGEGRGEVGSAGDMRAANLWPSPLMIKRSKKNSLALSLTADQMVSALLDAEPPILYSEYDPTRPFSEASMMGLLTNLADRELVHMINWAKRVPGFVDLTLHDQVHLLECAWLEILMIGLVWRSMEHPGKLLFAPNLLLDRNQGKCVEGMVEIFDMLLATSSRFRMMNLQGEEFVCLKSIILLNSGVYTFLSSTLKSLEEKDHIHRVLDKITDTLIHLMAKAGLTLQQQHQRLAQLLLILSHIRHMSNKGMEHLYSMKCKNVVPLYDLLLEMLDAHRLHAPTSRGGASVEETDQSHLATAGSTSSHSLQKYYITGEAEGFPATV
Method: (§4) ERα and ERβ activity were assayed using plasmids encoding either ERα or ERβ co-transfected with the ERE-LUC reporter gene. To assay estrogen receptor agonist activity, HeLa cells were transiently co-transfected with two plasmids (Tcherepanova, et al., 2000) using Lipofectamine. The first plasmid comprised DNA encoding human estrogen receptor (either ERα or ERβ), and the second plasmid comprised an estrogen-driven reporter system comprising: a luciferase reporter gene (LUC) whose transcription is under the control of upstream regulatory elements comprising 4 copies of the vitellogenin estrogen response element (ERE) cloned into the Mouse Mammary Tumor Virus (MMTV) promoter (the full name of the reporter system being ‘MMTV-ERE-LUC’).
as §2

[6] = target: T6, human estrogen receptor ERβ (Homo sapiens, UniProt Q92731); assay: ERβ MMTV-ERE-LUC reporter gene assay in HeLa cells
T6 construct: expressed in transfected cells; host or cells: HeLa
Method: as §4, §2

T6 sequence (Q92731 whole entry): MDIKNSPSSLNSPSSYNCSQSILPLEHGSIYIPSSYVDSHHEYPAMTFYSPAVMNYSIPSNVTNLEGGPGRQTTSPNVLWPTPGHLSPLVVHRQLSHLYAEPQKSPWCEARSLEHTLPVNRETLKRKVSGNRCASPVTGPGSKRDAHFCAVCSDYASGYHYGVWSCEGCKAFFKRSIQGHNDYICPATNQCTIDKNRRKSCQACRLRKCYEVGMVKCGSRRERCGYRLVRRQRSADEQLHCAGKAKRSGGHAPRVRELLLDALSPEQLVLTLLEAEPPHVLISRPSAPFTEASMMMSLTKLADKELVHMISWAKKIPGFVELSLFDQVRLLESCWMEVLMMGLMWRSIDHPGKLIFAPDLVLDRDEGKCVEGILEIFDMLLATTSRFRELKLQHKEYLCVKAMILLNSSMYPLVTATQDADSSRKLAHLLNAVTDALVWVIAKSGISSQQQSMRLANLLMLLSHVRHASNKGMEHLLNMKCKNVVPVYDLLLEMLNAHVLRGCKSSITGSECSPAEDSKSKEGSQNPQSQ

Compound	increase of the activity of maximal doses of PR agonist ([1]; Example 16, progesterone 100×10^−9M, 10 × 10^−9M (Table 11)) [fold]	increase of the activity of maximal doses of PPARα agonist [2] [fold]	increase of the activity of maximal doses of AR agonist ([3]; with dihydrotestosterone 1×10^−9M) [fold]	intrinsic agonistic AR activity ([3]; 0.1 to 30×10^−6M, no dihydrotestosterone)	further increase of the activity of saturating doses of dihydrotestosterone ([3]; dihydrotestosterone 10×10^−9M, FIG. 2A) [fold]	effect on the activity of dihydrotestosterone on AR ([3]; fixed 3×10^−6 M, dihydrotestosterone 0.01 to 10×10^−9M, FIG. 2B)	Luciferase activity (Fold ± SE), PPAR activity at fixed dose ([4]; GW9662 0 ×10^−6M, fixed doses: HQ Water extract 8 × 10^−6 g/mL, HQ DCM extract 50 × 10^−6 g/mL, Formononetin, Genistein 10 × 10^−6 M) [Fold]	Luciferase activity (Fold ± SE), PPAR activity at fixed dose ([4]; GW9662 0.3 ×10^−6M, fixed doses) [Fold]	Luciferase activity (Fold ± SE), PPAR activity at fixed dose ([4]; GW9662 1 ×10^−6M, fixed doses) [Fold]	Luciferase activity (Fold ± SE), PPAR activity at fixed dose ([4]; GW9662 3 ×10^−6M, fixed doses) [Fold]	Luciferase activity (Fold ± SE), PPAR activity at fixed dose ([4]; GW9662 10 ×10^−6M, fixed doses) [Fold]	Luciferase activity (Fold ± SE), PPAR activity at fixed dose ([4]; GW9662 30 ×10^−6M, fixed doses) [Fold]	increase of the activity of maximal doses of PR agonist ([1]; with progesterone 10×10^−6M) [fold]	ERα activity comparable to % maximal activity of Estradiol ([5]; 30×10^−6 g/ml)	increase of the activity of maximal doses of estradiol on ERα ([5]; with estradiol 1×10^−9M) [fold]	increase of PPARα activity, up to ([2]; Table 8) [fold]	effect on ERβ activity of estradiol ([6]; 1 to 30×10^−6 g/mL + estradiol 1×10^−9M)	ERβ activity comparable to % maximal activity of Estradiol ([6]; 30×10^−6 g/ml) [%]	PPARγ activity when added to pioglitazone compared with pioglitazone alone ([4]; 3 to 30 ×10^−6 g/mL + pioglitazone 30×10^−6M)	increase of PPARγ activity, up to ([4]; Table 8)
3′,7-Dihydroxy-4′-methoxyisoflavone [calycosin]	3	7	3	–	–	–	–	–	–	–	–	–	–	–	–	–	–	–	–	–
O=c1c(-c2ccc(O)cc2)coc2cc(O)cc(O)c12 [genistein]	–	–	–	does not display any intrinsic agohistic AR activity	5	augmented	7.37 ± 0.128	93.6 ± 2.47	83.9 ± 4.37	82.5 ± 2.63	67.4 ± 1.52	39.5 ± 0.403	–	–	–	–	–	–	–	–
COc1ccc(-c2coc3cc(O)ccc3c2=O)cc1 [formononetin, 7-Hydroxy-4′-methoxyisoflavone]	–	4.4	–	–	–	–	–	–	–	–	–	–	1.8	comparable to maximal activity of Estradiol	3.2	≤ 10	did not inhibit or augment the activity of estradiol alone	~400	no different than that observed with pioglitazone alone	up to 6 fold
